Tested on: T1, SWELL1 protein in 3T3-F442A adipocytes
T1 construct: host or cells: 3T3-F442A preadipocytes and differentiated adipocytes (wild type)
Assay: SWELL1 protein western blot in adipocytes
Format: cell-based, murine
Details: for SWELL1 protein level relative to vehicle-treated controls: 10 and 1 μM, 4 days, then 6 h serum starving
Method: In the case of 3T3-F442A adipocytes, the WT and KO cells were treated with either vehicle (DMSO), 1 or 10 µM SN-40X (after 7–11 days of differentiation) for 96 h and then stimulated with 0 and 10 nM insulin/serum-containing media with vehicle (DMSO) or SN-40X for 15 min for SWELL1 detection. […] To simulate glucolipotoxicity, 8 mM sodium palmitate was dissolved in 18.4% fatty-acid free BSA at 37 °C in DMEM medium with 25 mM glucose to obtain a conjugation ratio of 1:3 palmitate:BSA[80].
Adipocytes were washed twice in ice-cold phosphate buffer saline and lysed in RIPA buffer (150 mM NaCl, 20 mM HEPES, 1% NP-40, 5 mM EDTA, pH 7.4) with proteinase/phosphatase inhibitors (Roche). The cell lysate was further sonicated in 10 s cycle intervals 2–3 times and centrifuged at 18,407×g for 30 min at 4 °C and repeated one more time to remove the excess fat. The supernatant was collected and further estimated for protein concentration using a DC protein assay kit (Bio-Rad). Fat and liver tissues were homogenized and suspended in RIPA buffer with inhibitors and further processed in a similar fashion as described above. HUVECs were also prepared in a similar fashion except the lysates were spun only once to remove the cells debris to obtain the clear supernatant. For islets, either human or mouse islets were washed twice with phosphate buffer saline (PBS) and lysed using RIPA buffer containing protease and phosphatase inhibitors. The lysate was further clarified by freezing in liquid nitrogen for about 10 s for three cycles. The supernatant was collected from the whole lysate centrifuged at 16,260×g for 20 min at 4 °C. […] For soleus muscle, the tissue was homogenized in a Bullet Blender homogenizer (Speed-9, Time-3 mins) in 8 volumes of ice-cold muscle homogenization buffer (50 mM Tris, 25 mM NaCl, 0.2% Nonidet P-40, 5 mM EGTA, 2.5 mM EDTA, 20 mM NaF, 20 mM Na4P2O7·10H2O, 2 mM Na3VO4, pH 7.4) supplemented with protease/phosphatase inhibitor (Roche). The homogenized lysate was centrifuged two times at 18,500×g for 20 min at 4 °C and supernatant was collected for protein estimation. Protein samples were further prepared by boiling in 2X or 4X Laemmli buffer. Approximately 10–60 µg of total protein was loaded in 4–15% gradient gel (Bio-Rad) for separation and protein transfer was carried out onto the PVDF membranes (Bio-Rad). Membranes were blocked in 5% BSA (or 5% milk for SWELL1) in TBST buffer (0.2 M Tris, 1.37 M NaCl, 0.2% Tween-20, pH 7.4) for 1 h and incubated with appropriate primary antibodies (5% BSA or milk) overnight at 4 °C. […] The images were further analyzed for band intensities using ImageJ software. […]

SMILES	SWELL1 protein level relative to vehicle-treated controls	SWELL1 protein expression (3T3-F442A adipocytes, 10 µM, 96 h) [fold control expression]
CCCCC1(C2CCCC2)Cc2cc(OCCCCCC(=O)O)c(Cl)c(Cl)c2C1=O (stereo not drawn) [SN-406, 6-((2-butyl-6,7-dichloro-2-cyclopentyl-1-oxo-2,3-dihydro-1H-inden-5-yl)oxy)hexanoic acid]	1.5–2.1 fold	
CCCCC1(C2CCCC2)Cc2cc(OCCCC(=O)O)c(Cl)c(Cl)c2C1=O (stereo not drawn) [SN-401, 4-((2-butyl-6,7-dichloro-2-cyclopentyl-1-oxo-2,3-dihydro-1H-inden-5-yl)oxy)butanoic acid]		1.5
CCCCC1(C2CCCC2)Cc2cc(OCC(=O)O)c(Cl)c(Cl)c2C1=O (stereo not drawn) [Inactive 1, 2-((2-butyl-6,7-dichloro-2-cyclopentyl-1-oxo-2,3-dihydro-1H-inden-5-yl)oxy)acetic acid]	did not significantly increase	

— paper PMC8831520, “Small molecule SWELL1 complex induction improves glycemic control and nonalcoholic fatty liver disease in murine Type 2 diabetes” (Nature Communications, 2022)
